# In ChEMBL document CHEMBL1201862, “PubChem BioAssay data set” (2004):
# Active and inactive are the calls of the source.
# Key:
# [1] = molecular target: Sphingosine 1-phosphate receptor 2 (Homo sapiens, UniProt O95136); assay: Dose Response Cell Based Assay for Agonists of the S1P2 Receptor of Purchased Analogues. [Related pubchem assays: 729, 843, 854, 736 ]; format: functional
# [2] = Counterscreen for IDE inhibitors: Luminescence-based cell-based high throughput dose response assay to identify compounds that are cytotoxic to HEK cells. [Related pubchem assays: 434962 (Primary screen (IDE inhibitors in singlicate)), 449730 (Counterscreen (Cytotoxicity in triplicate)), 435028 (Confirmation (IDE inhibitors in triplicate)) …; format: functional; conditions: HEK293
# [3] = molecular target: T1, Protein skinhead-1 (Caenorhabditis elegans, UniProt P34707); format: functional
# T1 sequence (P34707 whole entry): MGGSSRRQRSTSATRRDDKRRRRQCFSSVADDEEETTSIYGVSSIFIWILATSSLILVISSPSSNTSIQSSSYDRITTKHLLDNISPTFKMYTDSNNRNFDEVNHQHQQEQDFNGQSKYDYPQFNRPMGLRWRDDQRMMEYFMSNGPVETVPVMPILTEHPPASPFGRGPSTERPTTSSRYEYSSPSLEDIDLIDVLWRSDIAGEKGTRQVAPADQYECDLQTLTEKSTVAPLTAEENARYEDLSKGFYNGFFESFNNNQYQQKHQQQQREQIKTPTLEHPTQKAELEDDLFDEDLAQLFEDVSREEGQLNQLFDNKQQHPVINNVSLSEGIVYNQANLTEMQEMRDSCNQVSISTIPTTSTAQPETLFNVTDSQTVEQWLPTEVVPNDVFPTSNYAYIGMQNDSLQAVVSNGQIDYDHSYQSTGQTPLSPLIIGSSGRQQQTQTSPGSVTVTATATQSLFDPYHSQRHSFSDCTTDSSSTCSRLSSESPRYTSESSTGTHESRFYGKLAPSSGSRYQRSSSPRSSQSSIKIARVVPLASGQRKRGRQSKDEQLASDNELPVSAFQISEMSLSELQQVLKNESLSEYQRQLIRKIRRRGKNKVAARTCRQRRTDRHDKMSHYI
# [4] = growth suppression of beta-catenin-knockout colon cells, dose response, cell-based, HCT116, human colon tumor (AID 1045); format: functional;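 note: HCT116 colon tumor cells with beta catenin knocked out; cells exposed to compound for 60 hours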
# [5] = NIH-3T3 fibroblast cytotoxicity, dose response, cytotoxicity control, cell-based, fluorescence, Alamar Blue, secondary assay (AID 2327); format: functional;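 note: NIH-3T3 mouse fibroblasts cultured with fluconazole at 8 µg/mL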
# [6] = molecular target: T2, Insulin-degrading enzyme (Homo sapiens, UniProt P14735); assay: Dose Response: Fluorescence polarization-based cell-based high throughput dose response assay for inhibitors of insulin-degrading enzyme (IDE). [Related pubchem assays: 434962 (Primary screen (IDE inhibitors in singlicate)), 449730 (Counterscreen (Cytotoxicity in triplicate)), 435028 (Confirmation (IDE inhibitors in triplicate)), 434984 (Summary …; format: functional
# T2 sequence (P14735 whole entry): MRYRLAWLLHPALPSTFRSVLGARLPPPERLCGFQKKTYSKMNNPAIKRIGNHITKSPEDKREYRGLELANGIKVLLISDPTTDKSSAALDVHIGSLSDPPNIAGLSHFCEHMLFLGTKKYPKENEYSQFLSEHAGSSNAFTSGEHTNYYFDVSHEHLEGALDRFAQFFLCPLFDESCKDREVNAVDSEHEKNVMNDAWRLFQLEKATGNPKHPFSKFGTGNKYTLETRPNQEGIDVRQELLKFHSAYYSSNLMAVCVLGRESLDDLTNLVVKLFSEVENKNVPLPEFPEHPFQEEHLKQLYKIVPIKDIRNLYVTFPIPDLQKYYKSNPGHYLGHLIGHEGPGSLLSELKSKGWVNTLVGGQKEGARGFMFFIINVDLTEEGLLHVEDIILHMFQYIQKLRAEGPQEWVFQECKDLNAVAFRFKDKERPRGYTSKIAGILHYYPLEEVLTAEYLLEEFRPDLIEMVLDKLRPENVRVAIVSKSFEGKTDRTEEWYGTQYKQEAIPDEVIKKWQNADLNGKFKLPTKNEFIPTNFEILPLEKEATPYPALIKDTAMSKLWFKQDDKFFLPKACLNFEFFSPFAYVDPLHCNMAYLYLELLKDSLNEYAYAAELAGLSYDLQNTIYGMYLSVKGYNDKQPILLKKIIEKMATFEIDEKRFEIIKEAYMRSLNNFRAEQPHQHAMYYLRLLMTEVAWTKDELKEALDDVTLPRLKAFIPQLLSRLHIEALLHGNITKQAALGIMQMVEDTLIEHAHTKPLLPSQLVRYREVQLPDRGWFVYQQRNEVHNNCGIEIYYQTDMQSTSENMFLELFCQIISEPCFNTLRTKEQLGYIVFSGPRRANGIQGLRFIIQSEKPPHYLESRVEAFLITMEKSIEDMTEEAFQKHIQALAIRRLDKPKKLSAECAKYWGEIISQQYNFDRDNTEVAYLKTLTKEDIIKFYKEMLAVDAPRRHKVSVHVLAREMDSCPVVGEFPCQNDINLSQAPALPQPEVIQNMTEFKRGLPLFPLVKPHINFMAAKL
# [7] = C. albicans growth with fluconazole, confirmation, fluorescence, retest (AID 2467); format: functional, cell-based
# [8] = growth suppression of PTEN-null colon cells, dose response, cell-based, HCT116 PTEN knockout (AID 1047); format: functional;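 note: HCT116 colon tumor cells with PTEN knocked out; cells exposed to compound for 60 hours before readout; potency for loss of cell viability measured by luminescence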
# [9] = molecular target: T3, Bcl-2-related protein A1 (Mus musculus, UniProt Q07440); assay: Bfl-1 binding inhibitors, SAR follow-up, biochemical, fluorescence polarization (AID 1070)
# T3 sequence (Q07440 whole entry): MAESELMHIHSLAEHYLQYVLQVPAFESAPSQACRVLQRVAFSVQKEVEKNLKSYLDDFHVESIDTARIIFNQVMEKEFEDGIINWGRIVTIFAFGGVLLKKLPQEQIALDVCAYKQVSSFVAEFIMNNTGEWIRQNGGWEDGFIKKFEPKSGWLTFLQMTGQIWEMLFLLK
# [10] = molecular target: T3, Bcl-2-related protein A1; assay: Bfl-1 inhibitors blocking BH3 peptide binding, confirmation, biochemical, TR-FRET, mouse Bfl-1 (AID 621);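 note: TR-FRET binding of GST-Bfl-1 to FITC-labelled Bid peptide via terbium antibody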
# [11] = molecular target: Glyceraldehyde-3-phosphate dehydrogenase (Homo sapiens, UniProt P04406)
# Chain of Glyceraldehyde-3-phosphate dehydrogenase (P04406 whole entry): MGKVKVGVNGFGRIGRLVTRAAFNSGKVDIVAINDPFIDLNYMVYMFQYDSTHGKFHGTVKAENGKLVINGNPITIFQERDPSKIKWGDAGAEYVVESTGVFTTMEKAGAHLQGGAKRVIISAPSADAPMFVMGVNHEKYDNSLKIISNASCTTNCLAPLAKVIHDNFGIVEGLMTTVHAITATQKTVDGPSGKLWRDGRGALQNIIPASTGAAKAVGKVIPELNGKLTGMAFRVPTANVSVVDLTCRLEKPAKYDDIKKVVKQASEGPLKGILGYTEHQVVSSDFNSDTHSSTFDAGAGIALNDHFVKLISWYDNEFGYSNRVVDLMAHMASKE
# [12] = P. falciparum late gametocyte killing, dose response, luminescence (AID 1117278); format: functional, cell-based;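 note: gametocytes exposed to compound for 24 hours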
# [13] = Jurkat T cell cytotoxicity, dose response, cytotoxicity control for P. falciparum gametocyte viability project, luminescence (AID 1117277); format: functional, cell-based;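 note: potency reflects loss of cellular ATP meaning fewer viable cells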
# [14] = inhibitors of intracellular T. cruzi replication, confirmation, NIH3T3 host cells, beta-gal luminescence (AID 2044); format: functional, cell-based;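 note: intracellular parasites grown in NIH/3T3 mouse fibroblasts as host cells; luminescent beta-galactosidase reporter signal from transgenic T. cruzi replicating inside host cells; inhibitors lower the luminescence signal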
# [15] = cytotoxicity toward NIH3T3 fibroblasts, dose response, counter-screen, cell-based, ATP luminescence, mouse fibroblasts (AID 2010); format: functional;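 note: cells exposed to compound for about 90 hours before reading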
# [16] = cells
# [17] = molecular target: Cytochrome P450 2D6 (Homo sapiens, UniProt P10635); assay: qHTS Assay for Inhibitors and Substrates of Cytochrome P450 2D6. [Related pubchem assays: 410 ]; format: ADME; conditions: read-out: Potency
# Chain of Cytochrome P450 2D6 (P10635 whole entry): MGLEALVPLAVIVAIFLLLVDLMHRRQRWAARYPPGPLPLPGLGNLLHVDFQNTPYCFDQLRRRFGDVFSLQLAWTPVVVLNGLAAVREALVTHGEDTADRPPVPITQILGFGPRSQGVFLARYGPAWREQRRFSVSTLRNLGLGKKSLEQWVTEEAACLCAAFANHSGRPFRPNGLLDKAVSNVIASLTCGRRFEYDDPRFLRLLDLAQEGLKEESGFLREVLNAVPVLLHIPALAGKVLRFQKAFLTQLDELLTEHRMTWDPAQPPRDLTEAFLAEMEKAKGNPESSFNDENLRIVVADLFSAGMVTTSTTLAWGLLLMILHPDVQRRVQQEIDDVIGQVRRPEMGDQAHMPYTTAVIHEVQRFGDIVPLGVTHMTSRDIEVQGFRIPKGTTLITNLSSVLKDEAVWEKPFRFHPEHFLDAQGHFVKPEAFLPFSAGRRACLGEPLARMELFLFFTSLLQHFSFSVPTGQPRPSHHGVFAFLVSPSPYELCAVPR
# [18] = Luminescence Cell-Based Dose Response HTS to Identify Activators of Luciferase Translation or Activity in H4 […] Cells. [Related pubchem assays: 1829 (Project Summary), 1814 (Primary HTS)]; format: functional
# [19] = Luminescence Cell-Based Dose Confirmation HTS to Identify Activators of 5'UTR Stem-Loop Driven Alpha-Synuclein mRNA Translation in H4 Neuroglioblastoma Cells. [Related pubchem assays: 1829 (Project Summary), 1814 (Primary HTS)]; format: functional
# [20] = test system: H4; assay: Luminescence Cell-Based Dose Response HTS to Identify Activators of 5'UTR Stem-Loop Driven Prion Protein mRNA Translation in H4 Neuroglioblastoma Cells. [Related pubchem assays: 1829 (Project Summary), 1814 (Primary HTS)]; format: functional; conditions: Homo sapiens
# [21] = HEp-2 cell cytotoxicity, dose response, cytotoxicity control for RSV inhibitor project, HTS (AID 2410); format: functional; conditions: human respiratory syncytial virus
# [22] = molecular target: T4, Estrogen receptor (Homo sapiens, UniProt P03372); assay: potentiators of ERα–SRC-1 coactivator binding, dose response, biochemical, TR-FRET, ERα LBD (AID 737)
# T4 sequence (P03372 whole entry): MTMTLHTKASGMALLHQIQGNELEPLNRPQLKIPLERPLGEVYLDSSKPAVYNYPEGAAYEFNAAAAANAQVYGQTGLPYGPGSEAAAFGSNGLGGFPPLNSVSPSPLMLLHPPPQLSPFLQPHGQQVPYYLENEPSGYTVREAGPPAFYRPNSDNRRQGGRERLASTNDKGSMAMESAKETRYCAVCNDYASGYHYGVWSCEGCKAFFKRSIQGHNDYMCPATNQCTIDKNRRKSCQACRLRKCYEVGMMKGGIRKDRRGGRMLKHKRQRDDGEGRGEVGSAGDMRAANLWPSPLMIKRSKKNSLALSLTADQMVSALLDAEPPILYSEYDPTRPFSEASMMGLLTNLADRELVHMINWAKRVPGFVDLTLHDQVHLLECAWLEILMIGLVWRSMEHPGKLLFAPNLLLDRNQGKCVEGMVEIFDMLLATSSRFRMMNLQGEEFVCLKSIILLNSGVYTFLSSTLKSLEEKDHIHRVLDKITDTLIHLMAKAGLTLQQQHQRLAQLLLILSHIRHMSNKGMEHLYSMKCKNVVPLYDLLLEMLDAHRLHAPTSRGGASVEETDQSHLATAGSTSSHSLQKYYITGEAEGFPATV
# Chain of Sphingosine 1-phosphate receptor 2 (O95136 whole entry): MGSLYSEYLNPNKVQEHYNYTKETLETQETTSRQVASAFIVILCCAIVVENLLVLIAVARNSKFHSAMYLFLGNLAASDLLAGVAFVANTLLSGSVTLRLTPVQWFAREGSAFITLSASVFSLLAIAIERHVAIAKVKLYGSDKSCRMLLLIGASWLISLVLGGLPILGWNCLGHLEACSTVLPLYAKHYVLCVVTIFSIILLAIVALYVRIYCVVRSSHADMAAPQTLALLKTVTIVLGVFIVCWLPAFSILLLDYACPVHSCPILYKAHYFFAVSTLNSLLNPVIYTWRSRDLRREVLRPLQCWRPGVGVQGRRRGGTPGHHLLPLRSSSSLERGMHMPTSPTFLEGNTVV
compound,measurement,setting,value
Cc1cc(C(=O)CSc2nnc(C3CC3)n2C)c(C)n1Cc1ccccc1,EC50,[1],> 30 µM (not active)
S=C(Nc1ccccc1)Nc1nc2ccccc2n1CCOc1ccccc1,IC50,[2],15.9 µM (not active)
same,IC50,[3],> 100 µM (inactive)
same,EC50,[4],15.9 µM (active)
same,EC50,[5],8.47 µM (inconclusive)
same,IC50,[6],> 55.9 µM (not active)
same,EC50,[7],2.08 µM (active)
same,EC50,[8],17.4 µM (active)
O=C1C(Cl)=C(Cl)C(=O)N1c1ccc(Cl)cc1Cl,IC50,[9],1.64 µM (active)
same,IC50,[10],0.74 µM (active)
same,IC50,[11],> 100 µM (not active)
O=[N+]([O-])c1cccc(S(=O)(=O)c2ccc(N3CCCCC3)c([N+](=O)[O-])c2)c1,IC50,[12],> 109 µM (inactive)
same,IC50,[13],> 83.3 µM (inactive)
COC(=O)c1c(NC(=O)Cn2cnc([N+](=O)[O-])n2)sc2c1CCC(C)C2 (stereo not drawn),EC50,[14],< 0.1 µM (active)
same,EC50,[15],> 60 µM (inconclusive)
same,EC50,[16],0.112 µM (active)
Cc1cc(C(=O)CN2C(=O)NC3(CCOc4ccccc43)C2=O)c(C)n1Cc1ccccc1 (stereo not drawn),EC50,[1],> 30 µM (not active)
Cc1nc(/N=N\c2cc(S(=O)(=O)O)c3cc([N+](=O)[O-])cc(S(=O)(=O)O)c3c2)c(COP(=O)(O)O)c(C=O)c1O,AC50,[17],20 µM (inconclusive)
C[C@H]1CCC[C@@H](O)CCC/C=C/c2cc(O)cc(O)c2C(=O)O1,EC50,[18],> 120 µM (not active)
same,EC50,[19],15.3 µM (active)
same,EC50,[20],> 120 µM (not active)
same,CC50,[21],8.71 µM (active)
same,EC50,[22],9.22 µM (active)
